Read-outs that look alike come from different tables or passages of the source.
Key:
[1] = biological target: T1, Aldose Reductase (Bos taurus, UniProt P16116); assay: Inhibition of aldose reductase in vitro (enzyme from beef eye lenses, glyceraldehyde substrate); format: biochemical; conditions: in DMF solution, read-out: percentages of inhibition (aldose reductase)
T1 construct: The enzyme is extracted from beef eye lenses; from tissue; host or cells: beef eye lenses
From the text: Inhibition of Aldose Reductase In Vitro
The reoxidation of NADPH coupled to the enzymatic reaction was followed spectrophotometrically at 340 nm.

[2] = tested on: carragenin edema; assay: Anti-inflammatory activity: carragenin edema test; format: in vivo; conditions: for % inhibition of carragenin edema: borate buffer pH 7, 24 h; for inhibition in vivo at 50 mg/kg / inhibition in vivo at 75 mg/kg / inhibition in vivo at 100 mg/kg / inhibition in vivo at 150 mg/kg: Rattus norvegicus, ip
Outline: (§1)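 Male Wistar EOPS rats receive 0.1 ml of 5% carragenin suspension in physiological serum into the hind-paw metatarsal muscle, with test substance given i.p. in neutralized solution at the same time. Paw edema is measured by plethysmometry at several times after carragenin and reported as % inhibition against pH-matched physiological serum controls.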

[3] = Anti-inflammatory activity: carragenin edema test; format: in vivo; conditions: rat, in vivo, ip, borate buffer pH 7
Outline: as §1

[4] = Solubilities in water; format: physicochemical; conditions: water; read-out: Solubilities in water

## C[C@@H]1O[C@@H](Oc2c(-c3ccc(O)c(O)c3)oc3cc(O)cc(O)c3c2=O)[C@@H]2OC3(CCCCC3)O[C@@H]2[C@H]1O [No. 7, 3-O-(2,3-O,O-cyclohexylidene-α-L-rhamnosyl)-quercetin]
[1]; 10^-4 mole/l
  inhibition at 100 µM: 91%
[1]; 10^-5 mole/l
  inhibition at 10 µM: 95%
[1]; 10^-6 mole/l
  inhibition at 1 µM: 84%
[1]; 10^-7 mole/l
  inhibition at 0.1 µM: 87%
[2]; 50 mg/kg i.p.
  % inhibition of carragenin edema: 10%
[2]; 75 mg/kg i.p.
  % inhibition of carragenin edema: 84%
[2]; 100 mg/kg i.p.
  % inhibition of carragenin edema: 67%
[2]; 150 mg/kg i.p.
  % inhibition of carragenin edema: 87%
[2]; 1 h, pH 7, read-out: % inhibition of carragenin edema, 50 mg/kg i.p., borate buffer pH 7, 1 h
  inhibition in vivo at 50 mg/kg: 14%
[2]; 1 h, pH 7, read-out: % inhibition of carragenin edema, 50 mg/kg i.p., borate buffer pH 7, 1 h 1/2
  inhibition in vivo at 50 mg/kg: 22%
[2]; 1 h, pH 7, read-out: % inhibition of carragenin edema, 75 mg/kg i.p., borate buffer pH 7, 1 h
  inhibition in vivo at 75 mg/kg: 73%
[2]; 1 h, pH 7, read-out: % inhibition of carragenin edema, 75 mg/kg i.p., borate buffer pH 7, 1 h 1/2
  inhibition in vivo at 75 mg/kg: 91%
[2]; 1 h, pH 7, read-out: % inhibition of carragenin edema, 100 mg/kg i.p., borate buffer pH 7, 1 h
  inhibition in vivo at 100 mg/kg: 51%
[2]; 1 h, pH 7, read-out: % inhibition of carragenin edema, 100 mg/kg i.p., borate buffer pH 7, 1 h 1/2
  inhibition in vivo at 100 mg/kg: 52%
[2]; 1 h, pH 7, read-out: % inhibition of carragenin edema, 150 mg/kg i.p., borate buffer pH 7, 1 h
  inhibition in vivo at 150 mg/kg: 89%
[2]; 1 h, pH 7, read-out: % inhibition of carragenin edema, 150 mg/kg i.p., borate buffer pH 7, 1 h 1/2
  inhibition in vivo at 150 mg/kg: 97%
[2]; 2 h, pH 7, read-out: % inhibition of carragenin edema, 50 mg/kg i.p., borate buffer pH 7, 2 h
  inhibition in vivo at 50 mg/kg: 16%
[2]; 2 h, pH 7, read-out: % inhibition of carragenin edema, 75 mg/kg i.p., borate buffer pH 7, 2 h
  inhibition in vivo at 75 mg/kg: 89%
[2]; 2 h, pH 7, read-out: % inhibition of carragenin edema, 100 mg/kg i.p., borate buffer pH 7, 2 h
  inhibition in vivo at 100 mg/kg: 48%
[2]; 2 h, pH 7, read-out: % inhibition of carragenin edema, 150 mg/kg i.p., borate buffer pH 7, 2 h
  inhibition in vivo at 150 mg/kg: 97%
[2]; 3 h, pH 7, read-out: % inhibition of carragenin edema, 50 mg/kg i.p., borate buffer pH 7, 3 h
  inhibition in vivo at 50 mg/kg: 23%
[2]; 3 h, pH 7, read-out: % inhibition of carragenin edema, 75 mg/kg i.p., borate buffer pH 7, 3 h
  inhibition in vivo at 75 mg/kg: 86%
[2]; 3 h, pH 7, read-out: % inhibition of carragenin edema, 100 mg/kg i.p., borate buffer pH 7, 3 h
  inhibition in vivo at 100 mg/kg: 45%
[2]; 3 h, pH 7, read-out: % inhibition of carragenin edema, 150 mg/kg i.p., borate buffer pH 7, 3 h
  inhibition in vivo at 150 mg/kg: 94%
[2]; 4 h, pH 7, read-out: % inhibition of carragenin edema, 50 mg/kg i.p., borate buffer pH 7, 4 h
  inhibition in vivo at 50 mg/kg: 21%
[2]; 4 h, pH 7, read-out: % inhibition of carragenin edema, 75 mg/kg i.p., borate buffer pH 7, 4 h
  inhibition in vivo at 75 mg/kg: 81%
[2]; 4 h, pH 7, read-out: % inhibition of carragenin edema, 100 mg/kg i.p., borate buffer pH 7, 4 h
  inhibition in vivo at 100 mg/kg: 46%
[2]; 4 h, pH 7, read-out: % inhibition of carragenin edema, 150 mg/kg i.p., borate buffer pH 7, 4 h
  inhibition in vivo at 150 mg/kg: 89%
[2]; 5 h, pH 7, read-out: % inhibition of carragenin edema, 50 mg/kg i.p., borate buffer pH 7, 5 h
  inhibition in vivo at 50 mg/kg: 7%
[2]; 5 h, pH 7, read-out: % inhibition of carragenin edema, 75 mg/kg i.p., borate buffer pH 7, 5 h
  inhibition in vivo at 75 mg/kg: 83%
[2]; 5 h, pH 7, read-out: % inhibition of carragenin edema, 100 mg/kg i.p., borate buffer pH 7, 5 h
  inhibition in vivo at 100 mg/kg: 45%
[2]; 5 h, pH 7, read-out: % inhibition of carragenin edema, 150 mg/kg i.p., borate buffer pH 7, 5 h
  inhibition in vivo at 150 mg/kg: 91%
[2]; 6 h, pH 7, read-out: % inhibition of carragenin edema, 50 mg/kg i.p., borate buffer pH 7, 6 h
  inhibition in vivo at 50 mg/kg: 6%
[2]; 6 h, pH 7, read-out: % inhibition of carragenin edema, 75 mg/kg i.p., borate buffer pH 7, 6 h
  inhibition in vivo at 75 mg/kg: 81%
[2]; 6 h, pH 7, read-out: % inhibition of carragenin edema, 100 mg/kg i.p., borate buffer pH 7, 6 h
  inhibition in vivo at 100 mg/kg: 43%
[2]; 6 h, pH 7, read-out: % inhibition of carragenin edema, 150 mg/kg i.p., borate buffer pH 7, 6 h
  inhibition in vivo at 150 mg/kg: 86%
[2]; read-out: % inhibition of carragenin edema, 50 mg/kg i.p., borate buffer pH 7, 1/2 h
  inhibition in vivo at 50 mg/kg: 0%
[2]; read-out: % inhibition of carragenin edema, 75 mg/kg i.p., borate buffer pH 7, 1/2 h
  inhibition in vivo at 75 mg/kg: 48%
[2]; read-out: % inhibition of carragenin edema, 100 mg/kg i.p., borate buffer pH 7, 1/2 h
  inhibition in vivo at 100 mg/kg: 21%
[2]; read-out: % inhibition of carragenin edema, 150 mg/kg i.p., borate buffer pH 7, 1/2 h
  inhibition in vivo at 150 mg/kg: 70%
[3]; 100 mg/kg i.p.
  mortality at 24 h: 20%
[3]; 150 mg/kg i.p.
  mortality at 5 h: 80%
[4]
  solubility: < 100 µg/mL

Reference: patent US4211772A, “Benzopyran glycoside acetals and ketals” (Laboratoires Sarget, priority 1977, dated 1980)
